Entries after “also recorded” stand apart in the source; their conditions may differ.
Experiments:
[1] = test system: IAA1, IAA29, GH3.2, GH3.3, and MAKR4; assay: Expression of marker genes of auxin signaling; type: in vivo, Arabidopsis thaliana; settings: 10 μM MBZ, 2 h
[2] = test system: root cells of etiolated seedlings; assay: Root cell size by confocal microscopy (PI staining); type: in vivo, Arabidopsis thaliana; settings: 4-day-old etiolated seedlings, 2.5 μM MBZ or 10 μM ACC
Excerpt: (§1) LaserMicroscopy. A Zeiss 710 confocal microscope with 20×, 40×, and 63× objectives were used to detect GFP and propidium iodide (PI) fluorescence. A Keyence BZ-X810 microscope with a 20× objective was used to detect bright field images and GFP fluorescence in FIG. 3B, FIG. 8B right panel, FIG. 9C, FIG. 9F.

[3] = test system: etiolated Arabidopsis seedlings; assay: Triple response of etiolated seedlings; type: in vivo, Arabidopsis thaliana; settings: for triple response in etr1-3: 4-days-old etiolated etr1-3 seedlings, 2.5 μM MBZ or 10 μM ACC
hsMAPK14 = hsMAPK14 (Homo sapiens, UniProt Q16539); settings: mammalian systems, Ariey-Bonnet et al., 2020; cited from earlier work
Chain of hsMAPK14 (Q16539 whole entry): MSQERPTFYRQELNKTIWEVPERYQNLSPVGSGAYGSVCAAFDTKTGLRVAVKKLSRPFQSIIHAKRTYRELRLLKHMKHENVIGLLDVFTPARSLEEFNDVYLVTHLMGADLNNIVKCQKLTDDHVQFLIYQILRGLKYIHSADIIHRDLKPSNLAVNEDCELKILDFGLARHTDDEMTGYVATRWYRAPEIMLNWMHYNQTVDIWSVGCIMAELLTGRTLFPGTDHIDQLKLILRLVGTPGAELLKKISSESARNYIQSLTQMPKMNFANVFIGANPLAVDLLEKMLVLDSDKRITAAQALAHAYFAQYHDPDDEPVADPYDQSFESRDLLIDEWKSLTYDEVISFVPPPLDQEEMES

DR5-GFP V2 = DR5-GFP V2 auxin response reporter in roots; type: in vivo, Arabidopsis thaliana
Excerpt: as §1

MAPK4 = molecular target: T1, MAPK4 (Arabidopsis thaliana, UniProt Q39024); assay: In vitro kinase assay with non-radioactive ATP-γ-S; type: biochemical; settings: 0, 10, 100 μM MBZ
T1 construct: 6xHis (N); made in house; host or cells: E. coli Rosetta 2 (DE3)pLysS
T1 sequence (Q39024 1-376): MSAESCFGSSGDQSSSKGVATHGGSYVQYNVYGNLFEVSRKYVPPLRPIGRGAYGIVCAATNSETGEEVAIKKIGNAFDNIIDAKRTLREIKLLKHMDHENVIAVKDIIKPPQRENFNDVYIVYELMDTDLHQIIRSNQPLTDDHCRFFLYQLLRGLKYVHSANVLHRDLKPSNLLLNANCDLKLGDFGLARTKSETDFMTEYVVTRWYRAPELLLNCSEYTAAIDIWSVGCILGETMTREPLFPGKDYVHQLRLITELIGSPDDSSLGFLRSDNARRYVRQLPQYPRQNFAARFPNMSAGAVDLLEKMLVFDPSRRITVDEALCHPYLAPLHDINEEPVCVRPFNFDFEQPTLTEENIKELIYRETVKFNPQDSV
Experimental: Protein purification. The CTR1 Kinase domain (540 aa-821 aa) (CTR1-KD) and MAPK4 were cloned into a modified pET28a with 6× His tag at their N-terminal. Proteins were expressed in Rosetta™ 2 (DE3)pLysS Competent Cells. Bacteria was cultured in 30 mL LB media containing 50 μg/mL kanamycin overnight at 37° C., 200 rpm. The culture was transferred into 1 L LB media with kanamycin. After the culture reached to 0.7 to 0.9 at OD 600 nm, 0.4 mM isopropylthiop-D-galactoside (IPTG) was added, and the culture was grown for 22 h at 20° C., 200 rpm. Cells were harvested by centrifugation at 4° C. for 10 mins at 3,000×g. The pellet was washed with 0.9% NaCl and resuspended in 40 mL lysis buffer (50 mM pH 7.5 Tris-HCl, 1 mM EDTA, 100 mM NaCl, 20% glycerol, EDTA-free protease inhibitor cocktail, 10 mM imidazole). […] Protein concentration was measured by their absorbance at 280 nm.
In vitro kinase assay with non-radioactive ATP-7-S. The in vitro kinase assay followed the previous published method ([…]). […] The phosphorylation status of MBP, CTR1-KD and MPK4 were analyzed by western blot using Recombinant Anti-Thiophosphate ester antibody (Abcam, Cat. Ab92570, 1:5000) followed by Goat Anti-Rabbit IgG (H+L)-HRP Conjugate antibody (Bio-Rad, Cat. No. 170-6515, 1:5000). The MBP, CTR1-KD and MPK4 proteins loading amounts were measured by Coomassie Blue R250 staining.

EIN3 = assay: 35S-EIN3-GFP protein level in ein3eil1 background; type: in vivo, Arabidopsis thaliana; settings: 2 hours, 10 μM MBZ or 50 μM ACC
Excerpt: as §1

[4] = test system: Ethylene Response Factor1 (ERF1); assay: Expression of ethylene response marker gene ERF1; type: in vivo, Arabidopsis thaliana; settings: root tissue, 2 hours, 10 μM MBZ or ACC (50 μM per legend)
[5] = test system: Arabidopsis lateral roots; assay: Time lapse of lateral root angle phenotyping after plate transfer; type: in vivo, Arabidopsis thaliana
Experimental: Time lapse of lateral root angle phenotyping. […] Root phenotype images of these plates were acquired by CCD vertical scanners (EPSON Perfection V600 Photo, Seiko Epson CO., Nagano, Japan) every 10 mins over a period of 24 hours using the tool described (Ogura et al., 2022). Root length and lateral root angles were measured using Fiji.

[6] = test system: Arabidopsis thaliana roots; settings: for root elongation / root hair growth: 8-day-old seedlings, 1 μM MBZ or 10 nM IAA plates
Arabidopsis roots [7] = assay: mRNA-seq of roots, differential expression and GO analysis; type: in vivo, Arabidopsis thaliana
Experimental: mRNA-seq analysis. 14 d old seedlings on DMSO plates were transferred to 12 MS liquid plates with DMSO or 10 μM mebedazole treatment for 4 h, root tissues were collected for RNA extraction and RNA-seq.
Read alignment and generation of counts. The TAIR10 genome file and annotation file were obtained from the Arabidopsis Information resource web site (arabidopsis.org). The An aligner, called the Splice Transcripts Alignments to Reference (STAR) version 2.7.0a^44, was used to align short reads in the FASTQ files. In order to use STAR, a STAR index was built using the following parameters:
Then, short reads in the FASTQ files were aligned and gene counts were obtained using the following STAR command:
A custom R script was used to combine counts per gene from count data produced from STAR cross all samples.
Differential expression analysis. Differential expression of genes between treatments and control was determined using the R package, edgeR (version 3.36.0) (Robinson et al., 2010). The CPM (counts per million) function from edgeR was used to normalize the counts and differentially expressed genes (DEGs) were identified using glmLRT function from edgeR.
Analysis of published Ethylene RNA-Seq. The fastq-dump utility from the Short Read Archive (SRA) Toolkit (v2.6.3) (github.com/ncbi/sra-tools) was used to download transcriptome libraries (SRA accession IDs: SRR648276, SRR648275, SRR648274, SRR648300, SRR648299, and SRR648298) from SRA database (ncbi.nlm.nih.gov/sra) (Leinonen et al., 2011). The color space sequencing data were converted to base-space sequencing data using Perl script ‘csfq2fq.pl’ (gist.github.com/pcantalupo/9c30709fe802c96ea2b3). The converted FASTQ files were aligned and analyzed using above methods.
Statistical analysis. A two-sided Student's t-test was used for comparisons of two conditions. The comparison of meristem length, mature cell length, root length, GSA between multiple treatments or genotypes was performed by One-way ANOVA and post hoc Tukey testing. Detailed information was prepared in figure legends. Statistical significance of overlap between DEGs from MBZ treatment and ethylene treatment was assessed by hypergeometric distribution test. Hypergeometric test function in R was used to calculate statistical significance: • $ phyper(q−1, m, n-m, k, lower.tail=FALSE, log.p=FALSE) • q=the number of genes in common between two sets • m=the number of genes in Set 1; • n=the total number of genes in RNA-Seq counts table (33,602) • k=the number of genes in Set 2

ARR5 = assay: Expression of immediate-early cytokinin target gene ARR5; type: in vivo, Arabidopsis thaliana; settings: 10 μM MBZ, 3 h, 6 h or 12 hours
[8] = test system: etiolated Col-0 seedlings; assay: Measurement of ethylene production by GC-MS; type: in vivo, Arabidopsis thaliana; settings: 3-days-old etiolated Col-0 seedlings, 10 μM
Experimental: Measurement of ethylene production. […] These vials were incubated at 22° C. for 3 days under dark environment. 500-1000 μL sample of the headspace gas was sampled with an autosampler (TriPlus RSH, Thermo Scientific) and injected into a gas chromatograph (Trace 1310 GC, Thermo Scientific) that was equipped with a HP-PLOTQ column ([…], 320 μm, 20 μm) and a mass spectrometer (TSQ8000 Evo MS, Thermo Scientific), scanning from 25-27.5 m/z. Separations were carried out at 35° C. using He as the carrier gas. The area of the ethylene peak (RT: 4 min) was integrated using Thermo Xcalibur Qual Browser. A calibration curve was generated by varying the injection volume (100 μL, 250 μL, 500 μL, and 1000 μL) of a 10 ppm ethylene standard (in nitrogen), and sample results are expressed as concentrations calculated from linear regression of calibration samples.

microtubules (TUB6-GFP) = assay: Microtubule orientation in root tips of TUB6-GFP seedlings; type: in vivo, Arabidopsis thaliana; settings: 1 μM IAA or 50 μM MBZ
Excerpt: as §1

Arabidopsis roots [9] = settings: 4 hours of ethylene treatment; cited from earlier work
[10] = 1 μM MBZ, one week after germination

COC(=O)Nc1nc2ccc(C(=O)c3ccccc3)cc2[nH]1 [MBZ, Mebendazole]
expression of marker genes of auxin signaling [1]: did not show any significant change | mature cell size [2]: reduced | triple response phenotype ([3]; 3-day-old etiolated seedlings, 10 μM MBZ): significant triple response phenotype | triple response in etr1-3 [3]: showed the typical triple response phenotype | triple response in ethylene insensitive mutants ein2-5 and ein3eil1 ([3]; MBZ (2.5 μM), etiolated seedlings): abolished; also recorded: didn't show a triple response | concentration sufficient to induce the triple response phenotype ([3]; dark environment): 2.5 µM | activity on hsMAPK14 (hsMAPK14): inhibitor | DR5-GFP V2 expression within 3 hours compared to mock (DR5-GFP V2; 10 μM MBZ, 3 h): no increased | DR5-GFP V2 expression, long-term treatment (DR5-GFP V2; 7-day-old roots grown on 1 μM MBZ plates): induced | effect on MAPK4 kinase activity compared to CTR1 (MAPK4): much less pronounced | kinase activity of MPK4 (MAPK4; concentration dependent): inhibited | 35S-EIN3-GFP protein level (EIN3): dramatically induced | transcript level of ERF [4]: strongly induced | reversibility of effect on lateral root angles ([5]; 1 μM MBZ, removal): fully reversible | time to change of GSA in time-lapse experiment ([5]; MBZ treatment): one to four | time until lateral root tips grow at a distinctly steeper angle upon removal from MBZ ([5]; transfer from 1 μM MBZ back to control conditions, 5 lateral root tips): four | time until lateral root tips grow at a more horizontal angle ([5]; transfer from DMSO to 1 μM MBZ medium, five lateral root tips): three | decreased root length (in average reduced by) [6, 10]: 37% | root hair initiation and elongation [6, 10]: increased | root length of ein2-5 and ein3eil1 mutant plants ([6]; 1.2 μM MBZ): clearly not affected | root phenotype of Col-0 ([6]; 1.2 μM MBZ): short roots and increased root hair development | response of etr1-1 and etr1-3 ethylene receptor mutants (root length, GSA) ([6]; 1.2 μM MBZ plates): strongly responded | lateral root angles of ctr1-1, ein2-5, and ein3eil1 plants ([6]; 2 to 3-weeks-old plants, 1.3 μM MBZ): insensitive | root elongation [6]: inhibited | root hair growth [6]: enhanced | lateral root angle ([6]; MBZ treatment): distinctly increased | plant growth and development ([6]; in vivo): strongly inhibited plant growth and development | lateral root gravitropic setpoint angle (GSA) ([6]; two-week-old seedlings grown on 1 μM MBZ plates): approx. 70 ° | GO enrichment of ethylene-activated signaling pathway (GO:0009873) (Arabidopsis roots [7]; 10 μM MBZ, 4 hours): 10.83 fold enrichment | GO enrichment of negative regulation of ethylene-activated signaling pathway (GO:0010105) (Arabidopsis roots [7]; 10 μM MBZ, 4 hours): 21.03 fold enrichment | number of differentially expressed genes (DEGs) (Arabidopsis roots [7]; 4 hours of MBZ treatment): 1335 genes | DEGs overlapping with DEGs of 4 hours ethylene treatment (Arabidopsis roots [7]; 4 hours of MBZ treatment vs published ethylene data): 306 genes | common DEGs retaining directionality of expression change (Arabidopsis roots [7]; MBZ vs ethylene, 4 h): More than 90% | ARR5 expression (ARR5): did not respond | ethylene production [8]: not detected

O=C(O)Cc1c[nH]c2ccccc12 [IAA]
orientation of tubulin in roots within 1 h (microtubules (TUB6-GFP)): significantly changed | root elongation [6]: inhibited | root hair growth [6]: enhanced

C=C [ethylene]
number of DEGs upon ethylene treatment (published data) (Arabidopsis roots [9]): 1397 genes

NC1(C(=O)O)CC1 [ACC, 1-aminocy-clopropane-1-carboxylic acid]
mature cell size [2]: reduced | triple response in etr1-3 [3]: completely insensitive | 35S-EIN3-GFP protein level (EIN3): dramatically induced | transcript level of ERF [4]: strongly induced | effect on root angle ([6]; ACC at certain concentrations (0.1-10 μM range)): weak but distinct effect | ethylene production [8]: dramatically induced

Source: US20250049032A1, “ETHYLENE SIGNALING ACTIVATOR MODULATES ROOT SYSTEM ARCHITECTURE” (Salk Institute for Biological Studies, priority 2021, published 2025)
